# System: granule cell progenitor proliferation, radioactive thymidine incorporation
# Assay: granule cell progenitor growth inhibitors – radioactive thymidine incorporation, counter-screen for Wee1 degradation inhibitor project, late-stage follow-up (AID 504930)
row,SMILES,IC50
1,c1ccc2[nH]c(CNc3nc(N4CCOCC4)nc4c3ncn4-c3ccsc3)nc2c1,11.6 nM
2,O=[N+]([O-])c1cccc2[nH]c(CNc3nc(N4CCOCC4)nc4c3ncn4-c3ccsc3)nc12,4.61 nM

# — PubChem BioAssay AID504930 (The Scripps Research Institute Molecular Screening Center, 2011)
